Measurements published in patent US20260152751A1, “INTERFERING RNA FOR INHIBITING JAK1 GENE EXPRESSION AND USE THEREOF” (Jenkem Technology Co., Ltd. (BEIJING), priority 2024, published 2026).

Legend:
[1] = test system: IFN-γ-induced STAT1 phosphorylation; test: Western blot of IFN-γ-induced STAT1 phosphorylation in L929 cells; type: cell-based, mouse; conditions: siRNA 50 nM, 48 h, IFN-γ 100 ng/mL 30 min, compared to siNC in Group 3, FIG. 17
Method: Mouse fibroblast L929 cells were seeded into a 6-well cell culture plate at 1×10^5 cells/well, and the culture medium was 2 mL of DMEM containing 10% FBS and 1% penicillin-streptomycin.
The cells were then harvested, and the total cellular proteins were extracted to detect the levels of phosphorylated STAT1 by Western blot.
1) The cells were lysed in an appropriate volume of pre-chilled RIPA lysis solution (supplemented with 1 mM PMSF, R1090, LABLEAD prior to use; containing protease and phosphatase inhibitors) for 3-5 min. The lysates were centrifuged at 14000 g at 4° C. for 5 min. The supernatant was carefully pipetted into a new 1.5 mL centrifuge tube. Protein concentrations were measured using the BCA method (PC0020, Solarbio). The samples were mixed with a loading buffer and incubated in a water bath kettle at 95° C. for 10 min.
2) The protein samples were separated by electrophoresis on 4-12% 12-well gradient gels (P41212, LABLEAD) using compatible electrophoresis buffer. […]
4) The PVDF membrane was trimmed based on the molecular weight of the protein and the marker, and blocked with 5% skim milk in TBST at room temperature for 1 h. […] After the membrane was washed again, chemiluminescent substrate (E1050, E1080, LABLEAD) was added, and signals were captured using the Bio-Red imaging system (ChemiDoc™ XRS+Imager) and analyzed using the accompanying software. […]

[2] = test system: JAK1 gene; test: qPCR of JAK1 expression in HaCaT cells transfected with modified siJAK1; type: cell-based, human; conditions: siRNA 50 nM, 48 h after transfection, JAK1 by qPCR, siNC = 100.00
Method: One day prior to transfection, 293T cells were seeded into a 24-well cell culture plate at 1×10^5 cells/well, and the culture medium was 500 μL of DMEM containing 10% FBS and 1% penicillin-streptomycin. Three replicate wells were made for each group. The culture plate was placed in an incubator with 5% CO2 at 37° C. for 24 h to allow the cells to adhere to the wall. On the day of transfection, the culture medium was changed to 450 μL of DMEM culture medium without antibiotics (containing 10% FBS). The siRNAs were diluted with 25 μL of Opti-MEM culture medium, and the control group was siNC at the same concentration; a Lipofectamine™RNAiMAX transfection reagent (Lip) was diluted with another 25 μL of Opti-MEM culture medium, and the mixture was left to stand at room temperature for 5 min; and the two dilutions were uniformly mixed and left to stand at room temperature for 5 min. 50 μL of the mixed solution described above was added to each well to obtain a final transfection volume of 500 μL, and the working concentration of the siRNA was 50 nM. After the cells were further cultured in an incubator with 5% CO2 at 37° C. for 48 h, the total RNA of the cells was extracted.
1) The RNA was reverse-transcribed into a cDNA template using the All-in-One First-Strand Synthesis MasterMix (LABLEAD, Cat. No.: F0202) kit. The reaction system was established according to Table 2, where all components were mixed uniformly and centrifuged to collect the liquid at the bottom of a tube, and the PCR program was run according to the settings of 37° C. for 2 min, 55° C. for 15 min, and 85° C. for 5 min, thereby giving the cDNA template.
2) The gene expression level was detected using the Taq SYBR® Green qPCR Premix (LABLEAD, Cat. No.: R0202) kit, and the qPCR system was established according to Table 3. All components were mixed uniformly and centrifuged to collect the liquid at the bottom of a tube, and the PCR program was run according to the following settings: • Step1: 95° C. 30 s; • Step2: 95° C. 10 s; • Step3: 60° C. 30 s+Plate Read; • Step4: Go to Step2, 40 times; • Step5: Melt Curve 65 to 95° C., increment 0.5° C., for 5 s+Plate Read.
GAPDH was used as an endogenous reference to detect the relative expression level of JAK1 gene, and the sequences of the primers used are as follows: […]
According to the method described in Example 2, human keratinocyte HaCaT cells were transfected with the modified siJAK1 at an siRNA working concentration of 50 nM. The expression level of JAK1 was detected by qPCR 48 h after the transfection. The controls included siNC and unmodified siJAK1 at the same concentration.

siJAK1-3283-m11: 2′-OMe and 2′-F modified siJAK1-3283; sense strand SEQ ID NO: 51, antisense strand SEQ ID NO: 55 (sense AGAACAUUGUGAAGUACAAUU; antisense UUGUACUUCACAAUGUUCUUU; 2'-OMe and 2'-F modifications; modified_base 20..21 OTHER; thymine; modified_base 1..2 OTHER; 2'-O-methyl; modified_base 3 OTHER; 2'-fluoro; modified_base 4 OTHER; modified_base 5 OTHER; modified_base 6 OTHER; modified_base 7 OTHER; modified_base 8 OTHER; modified_base 9..11 OTHER; modified_base 12 OTHER; modified_base 13 OTHER; modi; modified_base 1..3 OTHER; modified_base 7)
Inhibition of IFN-γ-induced STAT1 phosphorylation level by modified siJAK1 (Western blot) [1]: superior inhibitory effects
Relative expression level, Mean value (Mean) [2]: 18.37
